Measured values as given in patent US20220280473A1, “COMPOSITIONS AND METHODS FOR MODULATING EPITHELIAL-MESENCHYMAL TRANSITION” (AUCKLAND UNISERVICES LIMITED, priority 2021, published 2022).
Entries after “also recorded” stand apart in the source; their conditions may differ.

Key:
Assay type in all cases: cell-based, Human
ARPE-19 cells [1] = experiment: Cx43 cell membrane localization, immunolabelling; conditions: ARPE-19, HG+Cyt insult plus tonabersat, qualitative
ARPE-19 cells [2] = experiment: Transepithelial electrical resistance (TEER) of cell monolayer; conditions: ARPE-19 monolayer, HG+Cyt plus tonabersat 100 μM
Method: (§1) Human adult retinal pigment epithelial cells (ARPE-19; American Type Culture Collection, USA) were cultured in Dulbecco's modified Eagle medium F-12 (DMEM-F12; Thermofisher Scientific Inc., USA) supplemented with 10% foetal bovine serum ([…]: Invitrogen, USA) and a 1× antibiotics and antimycotics mixture (AA, 100× stock) at 37° C. in a humidified 5% CO2 incubator. Cells were grown in T75 flasks, and the medium was changed twice per week until confluent.
(§2) At passages 15-18, cells were plated at 2.5×10^5 cells/mL in 8-well chamber slides for immunohistochemical studies, 6-well plates with inserts for fluorescein isothiocyanate (FITC)-dextran dye leak and transepithelial electrical resistance (TEER) measurements, and 24-well plates for cell migration studies. Once confluent, cells were treated as three separate groups: untreated, insult of HG+Cyt, or HG+Cyt insult plus tonabersat treatment (HG+Cyt+Ton). The insult of HG+Cyt was used to induce DR-like conditions as has been previously described (Kuo et al., 2020; Mugisho et al., 2018a, 2018b), and consisted of a combination of 32.5 mM HG and the pro-inflammatory cytokines; tumour necrosis factor alpha (TNF-α; 10 ng/mL; Peprotech, USA) and interleukin-1 beta (IL-1β; 10 ng/mL; Peprotech, USA).
(§3) Tonabersat (MedChemExpress, NJ, USA) was administered at a concentration of 100 μM to cells at the same time as the HG+Cyt insult (HG+Cyt+Ton). To achieve this tonabersat was dissolved in 100% DMSO at a concentration of 100 mM and then 1 μl of the stock solution was added to 999 μl of culture medium containing HG+Cyt. Cells were incubated under treatment conditions for 72 h unless otherwise stated. Brightfield images were taken using a light microscope at 24, 48, and 72 h post-treatment. All experiments were repeated thrice.
To determine the effect of conditions on the TEER of the cell monolayer, cells were again seeded into the inserts of 6-well Transwell® plates (Corning Incorporated, USA), with additional medium in the base. […] TEER values were quantified relative to the 0 h values for each respective group. […]

ARPE-19 cells [3] = experiment: TGF-β1 and TGF-β2 release after HG+Cyt insult; conditions: HG+Cyt insult plus tonabersat
ARPE-19 cells [4] = experiment: ZO-1 tight junction localisation, immunocytochemistry; conditions: ARPE-19, HG+Cyt insult plus tonabersat 100 μM, qualitative
Method: as §1
(§4) At passages 15-18, cells were plated at 2.5×10^5 cells/mL in 8-well chamber slides for immunohistochemical studies, 6-well plates with inserts for fluorescein isothiocyanate (FITC)-dextran dye leak and transepithelial electrical resistance (TEER) measurements, and 24-well plates for cell migration studies. Once confluent, cells were treated as three separate groups: untreated, insult of HG+Cyt, or HG+Cyt insult plus tonabersat treatment (HG+Cyt+Ton). […]
(§5) Fluorescence images were taken on an Olympus FV1000 confocal laser scanning microscope (Olympus, Japan), and processed using Olympus FV10-ASW viewer and ImageJ software (Version 1.52a, National Institute of Health, USA). […] RPE65 and α-SMA expression was quantified by measuring the mean fluorescence intensity (MFI). […] The ratio of α-SMA to RPE65 expression was additionally calculated by (α-SMA MFI/RPE65 MFI). ZO-1 was qualitatively assessed for changes in localisation.

ARPE-19 cells [5] = experiment: α-SMA expression by quantitative immunocytochemistry after HG+Cyt insult; conditions: for α-SMA to RPE65 expression ratio / α-SMA expression (mean fluorescence intensity, compared to untreated levels): ARPE-19, HG+Cyt insult plus tonabersat 100 μM; for α-SMA to RPE65 expression ratio: α-SMA MFI/RPE65 MFI
Method: as §1, §2, §3
Cells were fixed with 4% paraformaldehyde for 10 min and permeabilized with 0.1% Triton X-100 in phosphate-buffered saline (PBS) for 10 min. Cells were blocked in normal goat or horse serum for 1 h, and then incubated overnight at 4° C. with either mouse anti-RPE65 (1:1000; Abcam, UK) and goat anti-α-SMA (1:200; Abcam, UK), or rabbit anti-ZO-1 (1:1000; Invitrogen, USA). Two 10 min washes followed in PBS, after which cells were incubated at room temperature for 2 h with their respective secondary antibodies; donkey anti-rabbit Alexa-488 (1:500; Abcam, UK), donkey anti-mouse Alexa-488 (1:500; Abcam, UK) or donkey anti-goat Cy3 (1:500; Invitrogen, USA). Cells were washed in PBS twice for 10 min. Cell nuclei were stained with DAPI (1:1000; Sigma-Aldrich, USA), and slides were mounted using Citifluor™ anti-fade reagent and sealed with nail varnish.
Fluorescence images were taken on an Olympus FV1000 confocal laser scanning microscope (Olympus, Japan), and processed using Olympus FV10-ASW viewer and ImageJ software (Version 1.52a, National Institute of Health, USA). Five images were taken from a single chamber per condition and repeated in three separate experiments. RPE65 and α-SMA expression was quantified by measuring the mean fluorescence intensity (MFI). Data is presented relative to the respective untreated group. The ratio of α-SMA to RPE65 expression was additionally calculated by (α-SMA MFI/RPE65 MFI). ZO-1 was qualitatively assessed for changes in localisation.

ARPE-19 cells [6] = experiment: RPE65 expression by quantitative immunocytochemistry after HG+Cyt insult
Method: as §1, §4, §5

ARPE-19 cells [7] = experiment: Cell migration (scrape wound) assay after HG+Cyt insult; conditions: ARPE-19, HG+Cyt plus tonabersat 100 μM
Method: as §1, §2
Tonabersat (MedChemExpress, NJ, USA) was administered at a concentration of 100 μM to cells at the same time as the HG+Cyt insult (HG+Cyt+Ton). […]
To determine cell migration rates following 72 h treatment, a scrape wound was created in the cell monolayer by drawing a 1000 μL pipette tip vertically over the cells by hand, and the width of the wound measured over time. […] The width of the scrape was measured with the line tool and “measure” feature in ImageJ at eight regular intervals (guided using a grid overlay) within each image. […] The scrape wound width was quantified relative to the post-scrape width at time 0 h and converted to a percentage scrape closure for each condition. […]

## CC(=O)c1ccc2c(c1)[C@H](NC(=O)c1ccc(F)c(Cl)c1)[C@H](O)C(C)(C)O2 [tonabersat, N-[(3S,4S)-6-acetyl-3-hydroxy-2,2-dimethyl-3,4-dihydrochromen-4-yl]-3-chloro-4-fluorobenzamide]
ARPE-19 cells [1]
  Cx43 cell membrane localization: maintained Cx43 localization
ARPE-19 cells [2]; 24 h
  TEER relative to 0 h value: 99.5±1.2%
ARPE-19 cells [2]; 48 h
  TEER relative to 0 h value: 114.9±3.2%
ARPE-19 cells [2]; 72 h
  TEER relative to 0 h value: 97.7±1.1%
ARPE-19 cells [3]; 24 h
  HG+Cyt induced TGF-β2 release: prevented HG+Cyt induced TGF-β2 release back to untreated levels
ARPE-19 cells [3]; 72 h
  TGF-β1 and 2 levels: no significant differences between all groups
ARPE-19 cells [4]
  ZO-1 cell membrane localization: maintained ZO-1 localization at the cell membrane; also recorded: prevented loss of ZO-1 cell membrane localization
ARPE-19 cells [5]; 24 h
  α-SMA to RPE65 expression ratio: 1.1
ARPE-19 cells [5]; 72 h
  α-SMA expression (mean fluorescence intensity, compared to untreated levels): 75.5±8.4%
  α-SMA to RPE65 expression ratio: 0.8
ARPE-19 cells [5]; 72 h, listed as HG+Cyt+Ton
  α-SMA expression (mean fluorescence intensity, compared to untreated levels): significantly reduced
ARPE-19 cells [5]; ARPE-19, addition of tonabersat, FIG. 2 qualitative
  α-SMA expression increase and striation following HG+Cyt insult (immunolabelling images): changes were prevented
ARPE-19 cells [6]; ARPE-19, HG+Cyt insult plus tonabersat 100 μM, 72 h, comparison with HG+Cyt and untreated groups, listed as HG+Cyt+Ton
  RPE65 expression (mean fluorescence intensity relative to untreated group): not being significantly different to either group; also recorded: no statistically significant difference
ARPE-19 cells [6]; ARPE-19, co-application of tonabersat, FIG. 2 qualitative
  RPE65 expression decrease following HG+Cyt insult (immunolabelling images): prevented
ARPE-19 cells [7]; 4 h post-scrape vs 0 h scrape width
  scrape wound percentage closure: no significant difference in percentage closure
ARPE-19 cells [7]; 24 h post-scrape relative to 0 h width
  scrape wound percentage closure: 33.8±9.6%
ARPE-19 cells [7]; 24 h post-scrape relative to 0 h width, listed as HG+Cyt+Ton
  scrape wound percentage closure: reduction in scrape wound closure
